Test results from PubChem BioAssay (NCI).
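Assay format: 96-well plates, 48-hour exposure. The concentration for full growth arrest is given as TGI.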

Legend:
Test in all cases: growth of human tumour cells (NCI), 48 h
A549 NSCLC = system: A549 NSCLC
ACHN renal = system: ACHN renal
HCC-2998 colon = system: HCC-2998 colon
HCT-116 colon = system: HCT-116 colon
HCT-15 colon = system: HCT-15 colon
HOP-92 NSCLC = system: HOP-92 NSCLC
HT29 colon = system: HT29 colon
IGROV1 ovarian = system: IGROV1 ovarian
K-562 leukemia = system: K-562 leukemia
LOX IMVI melanoma = system: LOX IMVI melanoma
NCI-H522 lung = system: NCI-H522 lung
OVCAR-3 ovarian = system: OVCAR-3 ovarian
RPMI-8226 leukemia = system: RPMI-8226 leukemia
RXF 393 renal = system: RXF 393 renal
SF-295 CNS = system: SF-295 CNS
SF-539 CNS = system: SF-539 CNS
SK-MEL-5 melanoma = system: SK-MEL-5 melanoma
SW-620 colon = system: SW-620 colon
PC-3 prostate = system: PC-3 prostate
SN12C renal = system: SN12C renal

Row | SMILES | TGI (A549 NSCLC) [µM] | TGI (ACHN renal) [µM] | TGI (HCC-2998 colon) [µM] | TGI (HCT-116 colon) [µM] | TGI (HCT-15 colon) [µM] | TGI (HOP-92 NSCLC) [µM] | TGI (HT29 colon) [µM] | TGI (IGROV1 ovarian) [µM] | TGI (K-562 leukemia) [µM] | TGI (LOX IMVI melanoma) [µM] | TGI (NCI-H522 lung) [µM] | TGI (OVCAR-3 ovarian) [µM] | TGI (RPMI-8226 leukemia) [µM] | TGI (RXF 393 renal) [µM] | TGI (SF-295 CNS) [µM] | TGI (SF-539 CNS) [µM] | TGI (SK-MEL-5 melanoma) [µM] | TGI (SW-620 colon) [µM] | TGI (PC-3 prostate) [µM] | TGI (SN12C renal) [µM]
1 | CN(/N=C\c1ccc2ccccc2c1)C1=NCCN1 | 36.3 | 60 | 29.7 | 31.8 | > 100 | 9.02 | 31.3 | 41.6 | 45.2 | 25.4 | 32 | 99.6 | 48 | 23.9 | 30.4 | 32.8 | 28.6 | 41.7 | – | –
2 | CC1(C)CCCOc2cccc(c2)OCCCC(C)(C)C1=O | > 100 | > 100 | – | > 100 | > 100 | 99.1 | 43.2 | > 100 | > 100 | > 100 | 67.3 | 69.1 | > 100 | 48.5 | – | > 100 | 35.8 | > 100 | > 100 | > 100
3 | COc1cc(C)c(C)c(OC(=O)c2c(C)c(C)c(OC)c(C)c2OC)c1C | 71.8 | > 100 | 53.1 | 39 | 18.5 | 53.9 | 23.5 | > 100 | 44.7 | 20.9 | 4.71 | 7.15 | 81.5 | 39.7 | 38.6 | 38.6 | 22.7 | 36 | – | > 100
4 | Cn1nc2ccc3nccc(N(CCO)CCO)c3c2n1 | > 100 | > 100 | > 100 | > 100 | > 100 | > 100 | > 100 | > 100 | > 100 | > 100 | > 100 | > 100 | > 100 | > 100 | > 100 | > 100 | > 100 | > 100 | – | > 100
5 | S=C1N=C(Cl)/C(=C\c2ccco2)N1 | > 100 | > 100 | – | > 100 | > 100 | > 100 | > 100 | > 100 | > 100 | > 100 | > 100 | > 100 | > 100 | > 100 | > 100 | > 100 | > 100 | > 100 | > 100 | > 100
6 | CCCC(=O)Oc1ccc2c(C)cc(=O)oc2c1OC(=O)CCC | > 100 | > 100 | – | > 100 | > 100 | 99.6 | > 100 | > 100 | > 100 | > 100 | – | > 100 | > 100 | – | > 100 | > 100 | > 100 | > 100 | > 100 | > 100
7 | CCCCCCCCCCCC(=O)c1c(O)cccc1O | 33.7 | 33.8 | 34.3 | 33.1 | 33.4 | 32.3 | 45 | 32.4 | > 100 | 33.7 | 33.2 | 31.4 | 68.5 | 40.4 | 31.4 | 32.4 | 26.7 | 33.5 | – | 34.7
8 | Cn1c(=O)cc(NCCc2ccccc2)[nH]c1=O | > 100 | > 100 | > 100 | > 100 | > 100 | > 100 | 78.1 | > 100 | > 100 | > 100 | – | 36.6 | > 100 | > 100 | 97.6 | > 100 | > 100 | > 100 | > 100 | > 100
9 | CCCCCCCCCCCC(O)=C1C(=O)CC(O)CC1=O (centres undefined) | > 100 | > 100 | > 100 | > 100 | – | > 100 | > 100 | > 100 | > 100 | > 100 | > 100 | > 100 | > 100 | > 100 | > 100 | > 100 | > 100 | > 100 | – | > 100
10 | CC(=O)C(=[N+]=[N-])C(=O)OCCOC(=O)C(=[N+]=[N-])C(C)=O | > 1 | > 1 | > 1 | > 1 | > 1 | > 1 | > 1 | > 1 | > 1 | > 1 | – | > 1 | > 1 | > 1 | > 1 | > 1 | > 1 | – | > 1 | > 1
